Patent US8440610B2, “Mapkap kinase-2 as a specific target for blocking proliferation of P53-defective cells” (Massachusetts Institute of Technology, priority 2004, dated 2013)

Experiments:
p38 MAPK/MK2 pathway = assay: Immunoblot of p38 MAPK/MK2 activation after DNA-damaging drugs in U2OS cells; format: cell-based, human
Protocol: (§1) 14-3-3 pull-down assays, immunoblotting, and immunofluorescence. U2OS cells were lysed in lysis buffer: 50 mM Tris/HCl, pH7.8, 150 mM NaCl, 1.0% NP-40, 5 mM EDTA, 2 mM DTT, 8 μg/ml pepstatin, 8 μg/ml aprotinin, 8 μg/ml leupeptin, 2 mM Na3VO4, 10 mM NaF, 1 μM microcystin for twenty minutes at 4° C. Clarified lysates (0.5-2 mg protein) were incubated with 20 μL glutathione beads or amylose beads containing 10-20 μg 14-3-3-GST or 14-3-3-MBP, respectively, for 120 minutes at 4° C. Following washing, lysates and bead-bound proteins were analysed by SDS-PAGE, followed by transfer to PVDF membranes and immunoblotted with the indicated antibodies. For immunofluorescence experiments, U2OS cells were seeded onto 18 mm^2 coverslips, irradiated or mock-treated, fixed, extracted, and immunostained as described previously (Clapperton et al., Nat. Struct. Mol. Biol., 11:512-518, 2004).

[1] = test system: Cdc25C Ser-216 phosphorylation; details: Chk1-depleted cells, low doses of UCN-01 (~300 nM); cited from earlier work
Chk2 = Chk2 (Homo sapiens, UniProt O96017); details: Chk1 versus Chk2; cited from earlier work
MAPKAP kinase-2 [2] = biological target: T1, MAPKAP kinase-2 (Homo sapiens, UniProt P49137); assay: Phosphorylation of hsp-27 on Ser-82 after heat shock in U2OS cells (immunoblot); format: cell-based; design: endogenous in cells; host or cells: U2OS cells; details: control luciferase shRNA U2OS cells, 42° C. for two hours, 250 nM UCN-01
Protocol: as §1
Activation of MK2 by cisplatin, camptothecin, and doxorubicin is strikingly similar to the activation profile reported for Chk1. […] U2OS cells depleted of Chk1 using siRNA were exposed to cisplatin and doxorubicin, and analyzed for activation of MK2. […] The IC50 value we measured for Chk1 is in good agreement with previously published data. […]

U2OS cells = assay: FACS cell cycle analysis (PI, phospho-histone H3) in U2OS cells; format: cell-based, human; details: untreated U2OS cells blocked in mitosis with nocodazole (100 nM, eighteen hours)
Protocol: Asynchronous MAPKAP kinase-2 or luciferase shRNA knockdown cells were mock treated or exposed to doxorubicin for thirty hours, and cell cycle progression was monitored by FACS. In one set of experiments, the spindle poison nocodazole was added to the media three hours after addition of doxorubicin, to cause any cells progressing through the cell cycle to arrest in mitosis. DNA content was monitored by PI staining; phospho-histone-H3 staining was used as an indicator of mitotic entry. As shown in the left panels of FIG. 14A, treatment of control luciferase shRNA knockdown cells with doxorubicin led to the accumulation of cells with 4N DNA content, and a lack of phospho-histone-H3 staining in either the absence or presence of nocodazole. The cells expressing the luciferase shRNAs behaved identically to the untransfected doxorubicin-treated control U2OS cell population (FIG. 24B), with the prominent 4N DNA component and the absence of phospho-histone-H3 staining indicative of an intact G2/M checkpoint.
In contrast to the G2/M checkpoint response observed in doxorubicin-treated cells, treatment with the DNA intra-strand cross-linker cisplatin caused U2OS cells to predominantly accumulate in the G1 and S phases of the cell cycle over the subsequent thirty hours (FIG. 24C). RNA interference was used to investigate the role of MAPKAP kinase-2 in this process. […] Strikingly, when nocodazole was added three hours following cisplatin addition, the MAPKAP kinase-2 depleted cells accumulated in a 4N DNA containing peak with ˜42% of the cells staining strongly for phospho-histone H3. Identical results were obtained in cells treated with a second unrelated siRNA sequence against MAPKAP kinase-2.
FACS analysis. UV irradiation was performed at 254 nm (UV-C) using a Stratalinker 2400 (Stratagene). U2OS cells were fixed in 70% ethanol overnight at −20° C., permeabilized with PBS containing 0.2% Triton X-100 for twenty minutes at 4° C., blocked with 2% FBS in PBS, and incubated with 1 μg of anti-phospho-histone H3 per 10^6 cells for sixty minutes on ice. […]

[3] = test system: mouse embryonic fibroblasts (MEFs); assay: Colony survival assay in p53 wild-type and p53−/− MEFs; format: cell-based; details: MEFs that lacked p53; not seen in p53 wild-type MEFs
Protocol: FIGS. 29A-29B are graphs showing the results of a colony survival assay in which mouse embryonic fibroblasts (MEFs) were treated with increasing doses of doxorubicin or cisplatin for eight hours, rinsed twice with PBS and once with media, and re-plated at an initial density of 5,000 cells/10 cm^2 dish. After eleven days, the number of colonies on the plate was counted and normalized to the number of colonies formed by the same cell type in the absence of treatment with chemotherapeutic drugs. RNA interference using short hairpin RNAs was used with both the p53 wild-type MEFs and the p53^−/− MEFs to knock down the levels of MAPKAP kinase-2 (MK2 shRNA). Short hairpin RNAs against luciferase (luciferase shRNA) were used as a control. […] FIG. 29C is a series of Western blots using the indicated antibodies. These blots verify that p53 polypeptide, and the known p53-responsive gene product p21, is induced by DNA damage only in the p53 wild-type cells (lanes 2, 3, 5, and 6), but not in the p53^−/− cells (lanes 7-12). […]
The p53 tumor suppressor protein plays an important role in the cellular response to DNA damage by transcriptionally upregulating the Cdk inhibitor p21 to induce a G1 and G2 arrest. […] Cells were infected with lentiviruses delivering shRNAs against luciferase (control) or MK2 and analyzed 6 days later (FIG. 29C). […] Only minimal amounts of the p53 inducer protein p19ARF were detected. […]

MAPKAP kinase-2 [4] = biological target: T1, MAPKAP kinase-2; assay: Kinetics of in vitro phosphorylation of MK2tides by MAPKAP kinase-2; format: biochemical; design: purchased Upstate; details: peptide as substrate of MAPKAP kinase-2
Source text: To verify the peptide library screening results, individual peptides (MK2tides) containing the optimal MAPKAP kinase-2 consensus motif LQRQLSI (SEQ ID NO: 16), or mutant versions with Ala substituted at each position in the motif, were synthesized and used for kinetic analysis (FIGS. 3B and 3C). […] The rank order of importance of key residues is Arg-3>Leu-5≈Ile+1>[…]. The optimal MK2tide had neither the lowest Km nor the highest Vmax, but rather had the highest Vmax/Km ratio, consistent with the fact that the peptide library screening approach selects substrates on the basis of optimal Vmax/Km, rather than low Km or high Vmax alone. […]
(§2) The sequences of the p38 optimal peptide and the p47phox peptide were KKAZGPQGPQSPIE (SEQ ID NO: 22) and KKAZGPQSPGSPLE (SEQ ID NO: 23), respectively. For 14-3-3 pulldowns of Cdc25B following in vitro phosphorylation by p38 or MAPKAP kinase-2, 2.0 μg of Cdc25B was incubated with 10-fold excess 14-3-3-MBP and analyzed by autoradiography. […] Samples were analyzed by SDS-PAGE followed by transfer to nitrocellulose for autoradiography and immunoblotting. The rate of p38α phosphorylation of isolated peptides and full-length p47phox proteins was determined by scintillation counting using peptide concentrations of 100, 400, and 1400 μM, and protein concentrations of 1, 5, 10 and 15 μM, with time points taken at five, ten, and twenty minutes. […]

p38α SAPK = p38α SAPK (Homo sapiens, UniProt Q16539); assay: Kinetics of in vitro substrate phosphorylation by p38α SAPK; format: biochemical; details: GST-tagged full-length protein as substrate
Source text: Wild-type and mutant versions of GST-tagged full-length p47phox protein, rather than isolated peptides, were then used as substrates for in vitro phosphorylation reactions. The wild-type full-length p47phox protein was rapidly phosphorylated by p38α SAPK (FIGS. 1C and 1D). […] Simultaneous mutation of both Ser345 and Ser348 to Ala eliminated phosphorylation of p47phox by p38 SAPK altogether.
as §2, with “autoradiography. For kinetic measurements, the reactions were terminated by the addition of an equal volume of 0.5 percent phosphoric acid, and 5 μl was spotted onto p81 paper.” for “autoradiography.”

Sequence of p38α SAPK (Q16539 whole entry): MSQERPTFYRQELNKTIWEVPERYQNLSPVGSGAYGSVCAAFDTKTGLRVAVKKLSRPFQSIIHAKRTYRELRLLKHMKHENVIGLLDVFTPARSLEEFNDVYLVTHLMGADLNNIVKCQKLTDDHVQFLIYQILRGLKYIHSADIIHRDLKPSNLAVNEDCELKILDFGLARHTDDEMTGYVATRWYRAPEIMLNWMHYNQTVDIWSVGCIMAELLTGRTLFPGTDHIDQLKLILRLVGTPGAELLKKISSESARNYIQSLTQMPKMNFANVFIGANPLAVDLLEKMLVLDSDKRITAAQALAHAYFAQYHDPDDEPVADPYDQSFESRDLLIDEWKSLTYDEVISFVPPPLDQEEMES
T1 sequence (P49137 whole entry): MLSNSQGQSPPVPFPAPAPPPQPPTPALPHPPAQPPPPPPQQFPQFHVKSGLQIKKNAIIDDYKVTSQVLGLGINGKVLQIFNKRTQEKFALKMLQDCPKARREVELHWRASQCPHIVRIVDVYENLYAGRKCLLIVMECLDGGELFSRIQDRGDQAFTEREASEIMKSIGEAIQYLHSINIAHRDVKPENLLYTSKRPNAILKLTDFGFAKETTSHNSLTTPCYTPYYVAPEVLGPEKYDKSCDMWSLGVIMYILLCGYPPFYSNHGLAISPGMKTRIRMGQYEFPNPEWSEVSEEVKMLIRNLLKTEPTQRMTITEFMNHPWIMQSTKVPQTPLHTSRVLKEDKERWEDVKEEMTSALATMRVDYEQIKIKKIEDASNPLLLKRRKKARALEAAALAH
Sequence of Chk2 (O96017 whole entry, species assumed): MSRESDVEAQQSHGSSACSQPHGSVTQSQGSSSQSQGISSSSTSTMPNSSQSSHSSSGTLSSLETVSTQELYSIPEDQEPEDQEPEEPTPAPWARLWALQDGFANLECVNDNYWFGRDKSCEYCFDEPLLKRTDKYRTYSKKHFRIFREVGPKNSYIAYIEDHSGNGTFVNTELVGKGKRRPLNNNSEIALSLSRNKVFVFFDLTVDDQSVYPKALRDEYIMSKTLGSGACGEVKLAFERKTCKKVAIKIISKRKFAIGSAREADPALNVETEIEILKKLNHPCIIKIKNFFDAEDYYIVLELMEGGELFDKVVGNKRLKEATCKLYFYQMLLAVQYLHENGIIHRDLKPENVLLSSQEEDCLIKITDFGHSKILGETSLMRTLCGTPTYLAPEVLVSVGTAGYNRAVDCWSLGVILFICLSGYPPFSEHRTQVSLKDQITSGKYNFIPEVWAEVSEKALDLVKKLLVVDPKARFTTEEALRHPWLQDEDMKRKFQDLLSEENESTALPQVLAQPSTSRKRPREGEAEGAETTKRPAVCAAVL

With `C[S+]([O-])c1ccc(-c2nc(-c3ccncc3)c(-c3ccc(F)cc3)[nH]2)cc1` (stereo not shown) [SB203580] the “MK2 activation by DNA damaging agents” value (p38 MAPK/MK2 pathway) was “completely abolished MK2 activation”.

For `CN[C@@H]1C[C@H]2O[C@@](C)([C@@H]1OC)n1c3ccccc3c3c4c(c5c6ccccc6n2c5c31)C(=O)N[C@H]4O` [UCN-01, 7-hydroxystaurosporin], the “phosphorylation of Cdc25C on Ser-216” value [1] is given as “lost”, the “IC50 for Chk1 lower than that for Chk2” value (Chk2) is given as roughly 1000 fold and the “phosphorylation of hsp-27 on Ser-82” value (MAPKAP kinase-2 [2]) is given as “completely abrogated”.

For `CC[C@@]1(O)C(=O)OCc2c1cc1n(c2=O)Cc2cc3ccccc3nc2-1` [camptothecin], the “time to MK2 activation (reduction in electrophoretic mobility, pThr-344)” value (p38 MAPK/MK2 pathway; U2OS cells, 10 μM drug) was “within four hour”.

With `COC(=O)Nc1nc2ccc(C(=O)c3cccs3)cc2[nH]1` [nocodazole] the “cells staining for phospho-histone H3” value (U2OS cells) was 42%.

In the case of “MK2 shRNA: lentivirally delivered short hairpin RNA against murine MAPKAP kinase-2 (SEQ ID NO: 26) (TCGATGCGTGTTGACTATGATTCAAGAGATCATAGTCAACACGCATCGTTTTTTC)”, the “sensitivity to doxorubicin and cisplatin (colony survival)” value [3] is reported as “increased sensitivity”.

In the case of “MK2tide: peptide containing the optimal MAPKAP kinase-2 consensus motif LQRQLSI (SEQ ID NO: 16)”, the “Km value relative to the best MAPKAP kinase-2 peptide substrate known to date (HSP27-derived sequence)” value (MAPKAP kinase-2 [4]) is reported as “two-fold lower”.

B1: wild-type p47phox: GST-tagged full-length p47phox protein, cytosolic component of NADPH oxidase, used as p38 SAPK substrate (protein)
chain: MGDTFIRHIALLGFEKRFVPSQHYVYMFLVKWQDLSEKVVYRRFTEIYEFHKTLKEMFPIEAGAINPENRIIPHLPAPKWFDGQRAAENRQGTLTEYCSTLMSLPTKISRCPHLLDFFKVRPDDLKLPTDNQTKKPETYLMPKDGKSTATDITGPIILQTYRAIANYEKTSGSEMALSTGDVVEVVEKSESGWWFCQMKAKRGWIPASFLEPLDSPDETEDPEPNYAGEPYVAIKAYTAVEGDEVSLLEGEAVEVIHKLLDGWWVIRKDDVTGYFPSMYLQKSGQDVSQAQRQIKRGAPPRRSSIRNAHSIHQRSRKRLSQDAYRRNSVRFLQQRRRQARPGPQSPGSPLEEERQTQRSKPQPAVPPRPSADLILNRCSESTKRKLASAV
modifications: left off: a dimerising Fc or GST
notes: GST-tagged full-length p47phox protein, cytosolic component of NADPH oxidase, used as p38 SAPK substrate
With B1 the “Vmax for p38 SAPK phosphorylation” value (p38α SAPK) was 36.6 nmol/min/µg and the Km (p38α SAPK; read-out: Km for p38 SAPK phosphorylation) was 6 µM.
